Where two headings read alike, the source gives them in different places.
Key:
[1] = target: mTOR (human recombinant aa mTOR 1360-2549) (Homo sapiens (Human), UniProt P42345); assay: mTOR enzymatic test by TR-FRET (phosphorylation of GFP-4EBP1); type: biochemical
How it was run: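 TR-FRET detection of GFP-4EBP1 phosphorylation by a terbium-labelled anti-phospho-Thr46 antibody. Kinase reaction ran 30 min at room temperature, was quenched with EDTA (10 mM final) plus Tb-antibody (2 nM final) and left 60 min. Emission at 520 and 490 nm after 340 nm excitation, reported as the 520/490 ratio.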

PI3Kα (p110α/p85α) = PI3Kα (p110α/p85α) (Homo sapiens (Human), UniProt P42336); assay: PI3Kα enzymatic test by measuring the consumption of ATP; type: biochemical
How it was run: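 p110α/p85α (1.7 μg/ml) with 50 μM PIP2 and 2 μM ATP in pH 7.5 Tris buffer with EGTA, MgCl2, Chaps, DTT; reaction 90 min. Remaining ATP measured by luciferin/luciferase luminescence; IC50 from threefold serial dilutions spanning at least 10 000-fold.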

U87MG tumour cells = assay: Test of in vitro proliferation of U87MG tumour cells; type: cell-based; settings: Homo sapiens, U-87 MG, 72 h
Description: Model 4: Test of in vitro Proliferation of U87MG Tumour Cells.
The cell growth is determined with the reagent CellTiter 96 AQueous One Solution Cell Proliferation Assay from Promega (Cat. No. G3581).

Akt-pS473 in U87MG cells = settings: Homo sapiens, U-87 MG
[2] = U87MG cells, 72 hours, read-out: U87 Cell Proliferation IC50
[3] = read-out: U87 Akt-pS473 % Inhibition or IC50, nM (IC50), U87MG cells

Chain of PI3Kα (p110α/p85α) (P42336 whole entry): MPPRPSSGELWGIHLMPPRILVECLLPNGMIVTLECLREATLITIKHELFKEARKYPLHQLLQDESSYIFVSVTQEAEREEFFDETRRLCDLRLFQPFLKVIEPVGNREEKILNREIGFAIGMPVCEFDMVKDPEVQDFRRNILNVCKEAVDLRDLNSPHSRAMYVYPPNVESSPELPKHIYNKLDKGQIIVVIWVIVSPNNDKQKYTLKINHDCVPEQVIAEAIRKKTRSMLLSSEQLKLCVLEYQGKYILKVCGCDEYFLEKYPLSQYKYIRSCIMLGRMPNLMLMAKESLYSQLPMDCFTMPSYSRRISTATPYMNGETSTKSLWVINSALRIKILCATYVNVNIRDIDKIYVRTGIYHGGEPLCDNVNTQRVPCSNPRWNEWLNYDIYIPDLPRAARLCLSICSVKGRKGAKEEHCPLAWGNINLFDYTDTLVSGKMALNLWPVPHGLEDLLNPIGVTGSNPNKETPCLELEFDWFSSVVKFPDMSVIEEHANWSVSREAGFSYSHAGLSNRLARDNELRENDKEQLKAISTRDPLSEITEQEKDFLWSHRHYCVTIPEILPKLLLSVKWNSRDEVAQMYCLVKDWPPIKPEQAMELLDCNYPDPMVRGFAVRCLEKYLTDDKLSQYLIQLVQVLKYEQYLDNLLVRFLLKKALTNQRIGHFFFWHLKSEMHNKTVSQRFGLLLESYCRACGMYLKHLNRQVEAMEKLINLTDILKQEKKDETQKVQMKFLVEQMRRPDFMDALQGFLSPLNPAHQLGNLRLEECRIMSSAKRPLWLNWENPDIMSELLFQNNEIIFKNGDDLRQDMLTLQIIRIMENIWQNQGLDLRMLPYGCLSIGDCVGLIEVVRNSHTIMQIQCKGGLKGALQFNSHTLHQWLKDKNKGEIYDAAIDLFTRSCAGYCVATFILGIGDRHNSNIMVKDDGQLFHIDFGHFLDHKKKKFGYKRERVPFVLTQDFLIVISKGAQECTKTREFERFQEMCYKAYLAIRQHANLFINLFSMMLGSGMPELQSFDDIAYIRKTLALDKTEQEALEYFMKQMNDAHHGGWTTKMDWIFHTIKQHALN
Chain of PI3Kα (p110α/p85α) (P27986 whole entry partner): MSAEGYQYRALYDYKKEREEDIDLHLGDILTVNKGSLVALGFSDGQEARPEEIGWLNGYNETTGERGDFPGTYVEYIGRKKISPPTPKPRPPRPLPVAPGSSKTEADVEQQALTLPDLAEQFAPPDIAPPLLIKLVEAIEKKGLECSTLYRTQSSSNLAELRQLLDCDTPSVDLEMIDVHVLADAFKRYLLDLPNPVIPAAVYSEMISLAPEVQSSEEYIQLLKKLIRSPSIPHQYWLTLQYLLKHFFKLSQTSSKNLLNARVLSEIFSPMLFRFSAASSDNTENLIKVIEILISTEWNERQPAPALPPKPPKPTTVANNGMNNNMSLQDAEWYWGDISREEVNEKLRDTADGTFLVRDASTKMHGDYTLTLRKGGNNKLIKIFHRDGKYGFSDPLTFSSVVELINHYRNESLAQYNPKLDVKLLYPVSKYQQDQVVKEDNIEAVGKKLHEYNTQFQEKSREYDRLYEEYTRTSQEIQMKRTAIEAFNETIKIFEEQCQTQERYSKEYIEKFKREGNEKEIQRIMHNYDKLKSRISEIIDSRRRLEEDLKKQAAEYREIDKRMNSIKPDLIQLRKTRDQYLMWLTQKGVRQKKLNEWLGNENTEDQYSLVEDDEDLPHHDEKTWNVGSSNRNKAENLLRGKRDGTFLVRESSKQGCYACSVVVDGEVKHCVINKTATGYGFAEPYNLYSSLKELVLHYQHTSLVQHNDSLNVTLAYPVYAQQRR
Chain of mTOR (human recombinant aa mTOR 1360-2549) (P42345 1360-2549): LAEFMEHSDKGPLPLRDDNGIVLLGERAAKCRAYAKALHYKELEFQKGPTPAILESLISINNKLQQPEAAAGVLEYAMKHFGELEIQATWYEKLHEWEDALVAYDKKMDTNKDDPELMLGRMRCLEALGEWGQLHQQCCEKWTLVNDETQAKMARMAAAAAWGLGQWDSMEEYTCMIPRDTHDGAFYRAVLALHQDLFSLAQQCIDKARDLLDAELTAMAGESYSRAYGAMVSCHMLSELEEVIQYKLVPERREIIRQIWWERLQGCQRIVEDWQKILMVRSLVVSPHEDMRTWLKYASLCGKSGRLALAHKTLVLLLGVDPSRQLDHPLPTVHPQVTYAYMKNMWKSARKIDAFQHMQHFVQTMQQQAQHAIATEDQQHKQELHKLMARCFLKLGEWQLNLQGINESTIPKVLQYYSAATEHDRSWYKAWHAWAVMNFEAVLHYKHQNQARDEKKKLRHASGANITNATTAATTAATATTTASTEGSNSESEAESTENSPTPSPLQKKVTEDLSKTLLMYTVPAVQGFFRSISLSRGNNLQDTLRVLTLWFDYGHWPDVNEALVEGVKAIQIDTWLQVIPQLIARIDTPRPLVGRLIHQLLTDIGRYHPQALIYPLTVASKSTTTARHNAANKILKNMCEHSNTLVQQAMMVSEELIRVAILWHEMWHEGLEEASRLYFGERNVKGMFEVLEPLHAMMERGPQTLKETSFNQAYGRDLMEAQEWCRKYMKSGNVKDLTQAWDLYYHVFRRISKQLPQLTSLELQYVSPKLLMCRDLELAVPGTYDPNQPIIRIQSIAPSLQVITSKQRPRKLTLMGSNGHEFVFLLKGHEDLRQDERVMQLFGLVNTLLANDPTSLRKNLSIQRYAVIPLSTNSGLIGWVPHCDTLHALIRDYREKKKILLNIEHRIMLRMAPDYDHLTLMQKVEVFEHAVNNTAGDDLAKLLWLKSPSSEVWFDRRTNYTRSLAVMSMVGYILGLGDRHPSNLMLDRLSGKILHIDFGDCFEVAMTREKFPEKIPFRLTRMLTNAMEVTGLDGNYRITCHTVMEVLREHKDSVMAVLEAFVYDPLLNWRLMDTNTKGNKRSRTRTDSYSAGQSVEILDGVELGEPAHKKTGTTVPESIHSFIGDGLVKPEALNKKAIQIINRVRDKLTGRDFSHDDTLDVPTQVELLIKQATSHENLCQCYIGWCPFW

Compound | IC50 [1] | PI3Ka IC50 (PI3Kα (p110α/p85α)) | IC50 (U87MG tumour cells; [2]) | IC50 (Akt-pS473 in U87MG cells; [3]) | inhibition at 3 µM (Akt-pS473 in U87MG cells; read-out: U87 Akt-pS473 % Inhibition) | IC50 (U87MG tumour cells; read-out: U87 Cell Proliferation IC50, nM) | IC50 (Akt-pS473 in U87MG cells; read-out: U87 Akt-pS473 % Inhibition or IC50, nM (IC50))
CCN1CC(C)(C)Oc2nc(N3CC4CCC(C3)O4)nc(-c3ccc(NC(=O)Nc4ccc(OC5CCOC5)cc4)c(F)c3)c2C1=O (stereo not drawn) [Example 77, 1-{4-[6-Ethyl-8,8-dimethyl-2-(8-oxa-3-azabicyclo[3.2.1]oct-3-yl)-5-oxo-5,6,7,8-tetrahydro-9-oxa-1,3,6-triazabenzocyclohepten-4-yl]-2-fluorophenyl}-3-[4-(tetrahydrofuran-3-yloxy)phenyl]urea] | 56 nM | 4490 nM | 53 nM | 16 nM |  |  | 
CCN1CC(C)(C)Oc2nc(N3CC4CCC(C3)O4)nc(-c3ccc(NC(=O)O[C@H](C)CO)c(F)c3)c2C1=O [Example 62, {4-[6-Ethyl-8,8-dimethyl-2-(8-oxa-3-azabicyclo[3.2.1]oct-3-yl)-5-oxo-5,6,7,8-tetrahydro-9-oxa-1,3,6-triazabenzocyclohepten-4-yl]-2-fluorophenyl}carbamic acid (R)-2-hydroxy-1-methylethyl ester] | 667 nM | >10000 nM | > 10000 nM | > 1000 nM |  |  | 
CCN1CC(C)(C)Oc2nc(N3CCOC[C@@H]3C)nc(-c3ccc(NC(=O)Nc4cc(OC)ccn4)c(F)c3)c2C1=O [Example 181, 1-{4-[6-Ethyl-8,8-dimethyl-2-((S)-3-methylmorpholin-4-yl)-5-oxo-5,6,7,8-tetrahydro-9-oxa-1,3,6-triazabenzocyclohepten-4-yl]-2-fluorophenyl}-3-(4-methoxypyridin-2-yl)urea] | 74 nM | 7650 nM | 1320 nM | 285 nM |  |  | 
COc1ccc(NC(=O)Nc2ccc(-c3nc(N4CCOC[C@@H]4C)nc4c3C(=O)N(C3CCOCC3)CC(C)(C)O4)cc2F)cn1 [Example 189, 1-{4-[8,8-Dimethyl-2-((S)-3-methylmorpholin-4-yl)-5-oxo-6-(tetrahydropyran-4-yl)-5,6,7,8-tetrahydro-9-oxa-1,3,6-triazabenzocyclohepten-4-yl]-2-fluorophenyl}-3-(6-methoxypyridin-3-yl)urea] | 62 nM | 1890 nM | 451 nM | 56 nM |  |  | 
CCN1CC(C)(C)Oc2nc(N3CCOC[C@@H]3C)nc(-c3ccc(NC(=O)Nc4ccc(OC)nc4)c(C)c3)c2C1=O [Example 196, 1-{4-[6-Ethyl-8,8-dimethyl-2-((S)-3-methylmorpholin-4-yl)-5-oxo-5,6,7,8-tetrahydro-9-oxa-1,3,6-triazabenzocyclohepten-4-yl]-2-methylphenyl}-3-(6-methoxypyridin-3-yl)urea] | 276 nM | 7470 nM | 5050 nM |  | 60% |  | 
CNC(=O)Nc1ccc(-c2nc(N3C4CCC3COC4)nc3c2C(=O)N(C)CC(C)(C)O3)cc1 [Example 43, 1-Methyl-3-{4-[6,8,8-trimethyl-2-(3-oxa-8-azabicyclo[3.2.1]oct-8-yl)-5-oxo-5,6,7,8-tetrahydro-9-oxa-1,3,6-triazabenzocyclohepten-4-yl]phenyl}urea] | 27 nM | 4730 nM | 82 nM | 20 nM |  |  | 
CCNC(=O)Nc1ccc(-c2nc(N3CC4CCC(C3)O4)nc3c2C(=O)N(CC)CC(C)(C)O3)cc1 [Example 99, 1-Ethyl-3-{4-[6-ethyl-8,8-dimethyl-2-(8-oxa-3-azabicyclo[3.2.1]oct-3-yl)-5-oxo-5,6,7,8-tetrahydro-9-oxa-1,3,6-triazabenzocyclohepten-4-yl]phenyl}urea] | 31 nM | >10000 nM | 239 nM | 40 nM |  |  | 
COCCN1CC(C)(C)Oc2nc(N3CC4CCC(C3)O4)nc(-c3ccc(NC(=O)Nc4ccon4)c(F)c3)c2C1=O [Example 179, 1-{2-Fluoro-4-[6-(2-methoxyethyl)-8,8-dimethyl-2-(8-oxa-3-azabicyclo[3.2.1]oct-3-yl)-5-oxo-5,6,7,8-tetrahydro-9-oxa-1,3,6-triazabenzocyclohepten-4-yl]phenyl}-3-isoxazol-3-ylurea] | 58 nM | >10000 nM | 1330 nM | 331 nM |  |  | 
CCN1CC(C)(C)Oc2nc(N3CC4CCC(C3)O4)nc(-c3ccc(NC(=O)NCCF)cc3)c2C1=O [Example 123, 1-{4-[6-Ethyl-8,8-dimethyl-2-(8-oxa-3-azabicyclo[3.2.1]oct-3-yl)-5-oxo-5,6,7,8-tetrahydro-9-oxa-1,3,6-triazabenzocyclohepten-4-yl]phenyl}-3-(2-fluoroethyl)urea] | 22 nM | 3627 nM | 221 nM | 150 nM |  |  | 
CCN1CC(C)(C)Oc2nc(N3CC4CCC(C3)O4)nc(-c3ccc(NC(=O)Nc4ccc(N(C)C)cn4)cc3)c2C1=O [Example 64, 1-(5-Dimethylaminopyridin-2-yl)-3-{4-[6-ethyl-8,8-dimethyl-2-(8-oxa-3-azabicyclo[3.2.1]oct-3-yl)-5-oxo-5,6,7,8-tetrahydro-9-oxa-1,3,6-triazabenzocyclohepten-4-yl]phenyl}urea] | 24 nM | >10000 nM | 270 nM | 37 nM |  |  | 
CCN1CC(C)(C)Oc2nc(N3CC4CCC(C3)O4)nc(-c3ccc(NC(=O)Nc4cccnc4)c(F)c3)c2C1=O [Example 223, 1-{4-[6-Ethyl-8,8-dimethyl-2-(8-oxa-3-azabicyclo[3.2.1]oct-3-yl)-5-oxo-5,6,7,8-tetrahydro-9-oxa-1,3,6-triazabenzocyclohepten-4-yl]-2-fluorophenyl}-3-pyridin-3-ylurea] | 20 nM | 2070 nM | 61 nM | 4 nM |  |  | 
CCN1CC(C)(C)Oc2nc(N3CCOC[C@@H]3C)nc(-c3ccc(NC(=O)Nc4ccc(OC)nc4)c(F)c3)c2C1=O [Example 141, 1-{4-[6-Ethyl-8,8-dimethyl-2-((S)-3-methylmorpholin-4-yl)-5-oxo-5,6,7,8-tetrahydro-9-oxa-1,3,6-triazabenzocyclohepten-4-yl]-2-fluorophenyl}-3-(6-methoxypyridin-3-yl)urea] | 34 nM | 598 nM | 94 nM | 19 nM |  |  | 
CCN1CC(C)(C)Oc2nc(N3CCOC[C@@H]3C)nc(-c3ccc(NC(=O)Oc4cccc(OC)c4)cc3)c2C1=O [Example 193, {4-[6-Ethyl-8,8-dimethyl-2-((S)-3-methylmorpholin-4-yl)-5-oxo-5,6,7,8-tetrahydro-9-oxa-1,3,6-triazabenzocyclohepten-4-yl]phenyl}carbamic acid 3-methoxyphenyl ester] | 970 nM | 9440 nM |  |  |  | 4660 nM | > 1000 nM
CNC(=O)Nc1ccc(-c2nc(N3CC4CCC(C3)O4)nc3c2C(=O)N(C)CC(C)(C)O3)cc1F [Example 45, 1-{2-Fluoro-4-[6,8,8-trimethyl-2-(8-oxa-3-azabicyclo[3.2.1]oct-3-yl)-5-oxo-5,6,7,8-tetrahydro-9-oxa-1,3,6-triazabenzocyclohepten-4-yl]phenyl}-3-methylurea] | 24 nM | 4000 nM | 85 nM | 32 nM |  |  | 
CCN1CC(C)(C)Oc2nc(N3CCOC[C@@H]3C)nc(-c3ccc(NC(=O)Nc4ccc(N5CCN(C)CC5)nc4)cc3)c2C1=O [Example 174, 1-{4-[6-Ethyl-8,8-dimethyl-2-((S)-3-methylmorpholin-4-yl)-5-oxo-5,6,7,8-tetrahydro-9-oxa-1,3,6-triazabenzocyclohepten-4-yl]phenyl}-3-[6-(4-methylpiperazin-1-yl)pyridin-3-yl]urea] | 22 nM | 326 nM | 125 nM | 36 nM |  |  | 
CCN1CC(C)(C)Oc2nc(N3C4CCC3COC4)nc(-c3ccc(NC(=O)Nc4ccccn4)cc3)c2C1=O [Example 63, 1-{4-[6-Ethyl-8,8-dimethyl-2-(3-oxa-8-azabicyclo[3.2.1]oct-8-yl)-5-oxo-5,6,7,8-tetrahydro-9-oxa-1,3,6-triazabenzocyclohepten-4-yl]phenyl}-3-pyridin-2-ylurea] | 31 nM | >10000 nM | 190 nM | 31 nM |  |  | 
CCN1CC(C)(C)Oc2nc(N3CC4CCC(C3)O4)nc(-c3ccc(NC(=O)Nc4ccc(N5CCN(C(=O)OC)CC5)nc4)c(F)c3)c2C1=O [Example 81, 4-[5-(3-{4-[6-Ethyl-8,8-dimethyl-2-(8-oxa-3-azabicyclo[3.2.1]oct-3-yl)-5-oxo-5,6,7,8-tetrahydro-9-oxa-1,3,6-triazabenzocyclohepten-4-yl]-2-fluorophenyl}ureido)pyridin-2-yl]piperazine-1-carboxylic acid methyl ester] | 124 nM | 2100 nM | 108 nM | 17 nM |  |  | 
CCN1CC(C)(C)Oc2nc(N3CCOC[C@@H]3C)nc(-c3ccc(NC(=O)Nc4cccc(C)n4)cc3)c2C1=O [Example 36, 1-{4-[6-Ethyl-8,8-dimethyl-2-((S)-3-methylmorpholin-4-yl)-5-oxo-5,6,7,8-tetrahydro-9-oxa-1,3,6-triazabenzocyclohepten-4-yl]phenyl}-3-(6-methylpyridin-2-yl)urea] | 55 nM | 4400 nM | 686 nM | 129 nM |  |  | 
